Results on two compounds are retold here after patent US20220162240A1, “MITOCHONDRIA-TARGETED ISOKETAL/ISOLEVUGLANDIN SCAVENGERS” (Vanderbilt University, priority 2019, published 2022).

The test system of one data set is endothelial NO. The data set is described as follows: Endothelial NO by ESR and Fe(DETC)2 in Ang II-infused mice. The data set is classed as in vivo. To be noted: 0.1 g/L in drinking water, ESR. How it is done:
(§1) (A) Aortic […] was measured by DHE probe and HPLC. (B) Endothelial NO was analyzed by ESR and Fe(DETC)2. C57Bl/6J mice were infused with Ang II ([…]) and mito2HOBA was provided in the drinking water (0.1 g/L).
(§2) The present inventors examined vascular oxidative stress by measurements of aortic ? using fluorescent ? probe DHE and HPLC, and analysis of endothelial NO using Electron Spin Resonance and specific NO spin trap Fe(DETC)2.
(§3) Among the other actions O2^• inactivates endothelial nitric oxide (NO), promotes vasoconstriction and vascular remodeling and ultimately increases systemic vascular resistance. Decreased NO bioavailability is therefore a hallmark of endothelial oxidative stress in hypertension due to NO oxidation, reduced NO production and eNOS uncoupling. We measured aortic O2^• using the fluorescent O2^• probe DHE and HPLC as we described previously. Endothelial NO was quantified by Electron Spin Resonance (ESR) and specific NO spin trap Fe(DETC)2.

Another data set has as its system aortic superoxide. Briefly: Aortic superoxide by DHE probe and HPLC in Ang II-infused mice. The data set is classed as in vivo. To be noted: 0.1 g/L in drinking water. How it is done: as §1, §2, §3
A further data set relates to mice. Briefly: Tolerability in mice receiving compound in drinking water. It is filed as in vivo.
For data set [1], the system named is mitochondrial isoLG protein adducts. The data set is described as follows: Western blot of isoLG adducts and CypD-isoLG (D11 antibody) in aorta mitochondria of Ang II-infused mice. The data set is classed as in vivo. Here is the method:
(§4) (A) Blood pressure in C57Bl/6J mice infused with saline (Sham) or Ang II ([…]). Mito2HOBA was supplemented in drinking water (0.1 g/L). (B) Western blot of aorta mitochondria for isoLG adducts (D11 antibody), CypD, GCN5L1, Sirt3 and CypD acetylation (CypD i.p. and anti-Acetyl-K WB). Results are mean±SEM. *P<0.01 vs Sham, **P<0.01 vs Ang II (n=8).
FIG. 18 is a western blot analysis of isoLG protein adducts in mitochondria isolated from aorta dissected from C57Bl/6J mice infused with Ang II and treated with mito2HOBA (A). CypD-isoLG modification was determined by CypD immunoprecipitation and Western blot with anti-isoLG D11 antibody (B).
(§5) Sham or Ang II-infused mice were supplemented with mito2HOBA in the drinking water (0.1 g/L) or plain water. […] Following 14 days of Ang II infusion, mice were sacrificed, aortas were isolated for Western blot studies. […] This causes an imbalance between mitochondrial acetylation and deacetylation pathways leading to hyperacetylation of mitochondrial proteins measured by Ac-K and CypD hyperacetylation.
The potential CypD-isoLG adduct formation was determined by CypD immunoprecipitation and Western blot with anti-isoLG D11 antibody.
A general note: Immunoblotting shows a protein as a band on a membrane.

Data set [2] shares this test system. The data set is described as follows: Western blot of isoLG adducts (D11 antibody) in heart mitochondria of Ang II-infused mice. The data set is classed as in vivo. The following applies: 0.1 g/L in drinking water, 14 days. How it is done: Mito2HOBA was supplemented in drinking water (0.1 g/L). […] Results are mean±SEM. *P<0.01 vs Sham, **P<0.01 vs Ang II (n=8).
(§6) Free radical oxidation of arachidonic acid produces highly reactive isolevuglandins (isoLG) which causes mitochondrial dysfunction by opening of the mitochondrial permeability transition pore (mPTP). […] The functional role of mitochondrial isoLG was tested in vivo using angiotensin II model of hypertension. C57Bl/6J mice were infused with angiotensin II (0.7 mg/kg/day) or saline (Sham) and received mito2HOBA in the drinking water (0.1 g/L). […] Decrease of NO is a hallmark of endothelial dysfunction in hypertension due to vascular oxidative stress.

A further data set relates to kidney mitochondria. The following applies: Ang II-infused mice, 0.1 g/L in drinking water. Here is the method: C57Bl/6J mice were infused with Ang II ([…]) and mito2HOBA in the drinking water (0.1 g/L). Following 14 days of Ang II infusion the animals were sacrificed and kidneys were isolated for mitochondrial studies. […] Respiratory control ratio (State 3/State 4) was measured in isolated kidney mitochondria with glutamate and malate […]. Control level is 100%. (B) Kidney ATP was measured in freshly isolated tissue by luciferase-based luminescent assay. Results are mean±SEM. *P<0.01 vs Sham, **P<0.01 vs Ang II (n=3-8).
(A) Respiratory control ratio (State 3/State 4) was measured in isolated kidney mitochondria with glutamate and malate. Control level is 100%. (B) Kidney ATP level was measured in freshly isolated tissue by luciferase-based luminescent assay. C57Bl/6J mice were infused with Ang II ([…]) and mito2HOBA was provided in the drinking water (0.1 g/L). Following 14 days of Ang II infusion the animals were sacrificed and kidneys were isolated for mitochondrial and ATP studies. Results are mean±SEM. *P<0.01 vs Sham, **P<0.01 vs Ang II (n=3-8).
The inventors analyzed kidney tissue isolated from control mice (Sham), mice drinking mito2HOBA, mice infused with Ang II and Ang II-infused mice supplemented with mito2HOBA (mito2HOBA+Ang II).
To show this, the present inventors analyzed kidney tissue isolated from control mice (Sham), mice drinking mito2HOBA (mito2HOBA), mice infused with Ang II (Ang II) and Ang II-infused mice supplemented with mito2HOBA (mito2HOBA+Ang II).

For data set [3], the system named is human aortic endothelial cells (HAECs). The data set is described as follows: Tolerability in cultured HAEC. It is filed as cell-based.
In data set [4] the test system is isoLG-Lysyl-Lactam protein adducts. Briefly: LC/MS/MS of isoLG-Lys-Lactam protein adducts in kidney mitochondria of Ang II-infused mice. The data set is classed as in vivo. The following applies: 0.1 g/L in drinking water.
Method: (A) Representative LC/MS/MS chromatograms; (B) isoLG-Lys-Lactam levels in mitochondria isolated from kidneys of mice drinking water (Sham), mito2HOBA (0.1 g/L), and infused with Ang II (0.7 mg/kg/day). Results are mean±SEM (n=3). *P<0.05 vs Ang II.
For data set [5], the system named is Ang II-infused C57Bl/6J mice. Briefly: Blood pressure in angiotensin II-induced hypertension, mito2HOBA in drinking water. The data set is classed as in vivo. The following applies: Ang II 0.7 mg/kg/day, compound 0.1 g/L in drinking water. Here is the method:
as §4
(A) Blood pressure in C57Bl/6J wild type mice infused with either saline (Sham) or Ang II ([…]). Mito2HOBA was supplemented in drinking water (0.1 g/L). (B) Mitochondrial isoLG were measured by Western blot in the heart mitochondria using D11 antibody as we have previously described. Results are mean±SEM. *P<0.01 vs Sham, **P<0.01 vs Ang II (n=8).
as §5
The present inventors implanted an osmotic minipump with Ang II (0.7 mg/kg/day) or saline (Sham) in C57Bl/6J mice receiving mito2HOBA in the drinking water (0.1 g/L) or plain water. […]

How the values of data set [6] were obtained: as §6
The above example is a water soluble compound which can be supplied to cells in the media and provided to animals in the drinking water.

For data set [7], the system named is human aortic endothelial cells (HAEC). Briefly: Mitochondrial superoxide in HAEC incubated with Ang II plus TNFα (MitoSOX/HPLC). The following applies: 50 nM, Ang II + TNFα 24 hours, MitoSOX/HPLC. It is filed as cell-based. Here is the method: as §6
(§7) Mitochondrial O2^• and cardiolipin oxidation (specific marker of mitochondrial dysfunction and oxidative stress) in cultured human aortic endothelial cells (HAEC) were incubated with Ang II and TNFα.

For data set [8] the test system is unchanged. Briefly: Cardiolipin oxidation in HAEC incubated with Ang II plus TNFα (LC/MS). To be noted: 50 nM, Ang II + TNFα 24 hours. The data set is classed as cell-based. Here is the method: as §6, §7
Another data set deals with CypD acetylation. The data set is described as follows: Western blot of aorta mitochondria for GCN5L1, Sirt3, Ac-K and CypD acetylation in Ang II-infused mice. It is filed as in vivo. To be noted: 0.1 g/L in drinking water; for CypD acetylation: CypD i.p. and anti-Acetyl-K WB. How it is done: as §4, §5
Hypertension impairs mitochondrial function and mito2HOBA attenuates mitochondrial dysfunction, and accumulation of mitochondrial isoLG in hypertension promotes CypD acetylation and mPTP opening, impairs mitochondrial respiration and reduces ATP. Scavenging of mitochondrial isoLG with mito2HOBA prevents these deleterious effects. The inventors analyzed kidney tissue isolated from control mice (Sham), mice drinking mito2HOBA, mice infused with Ang II and Ang II-infused mice supplemented with mito2HOBA (mito2HOBA+Ang II).

In a further data set the test system is mitochondrial matrix. The following applies: TPP conjugate, given as example; cited from earlier work.

“Also recorded” adds a separate entry of the source.

As for “4-(aminomethyl)-3-hydroxyphenoxy) butyl)triphenylphosphonium [mito2HOBA]”, the “endothelial NO” value in the data set with endothelial NO was “preserved endothelial NO; also recorded: preserves NO bioavailability”. For the same compound, in the data set with aortic superoxide, the “vascular (aortic) superoxide” value is recorded as “reduced; also recorded: reduces vascular O2^•”. Besides, the “tolerability by mice receiving it in drinking water” value in the data set with mice is on record as “well tolerated”. Besides, the “dose in drinking water well tolerated” value with mice (preliminary in vivo experiments) fell in the range of 0.1 to 0.3 g/L. In addition, the “isoLG adducts in aorta mitochondria” value in data set [1] (Ang II-infused mice, 0.1 g/L in drinking water, 14 days, D11 antibody) is “prevents accumulation of isoLG adducts; also recorded: attenuated accumulation of mitochondrial isoLG”. Besides, in data set [1] (CypD immunoprecipitation and Western blot with D11 antibody), the “protein isoLG adducts and CypD-isoLG in aortic mitochondria” value was “diminished”. The “isoLG adducts in heart mitochondria” value in [2] is given as “reduced accumulation of isoLG adducts”. Further, the “mPTP opening (Ca2+ retention capacity) in kidney mitochondria” value with kidney mitochondria (14 days) is reported as “attenuates mPTP opening; also recorded: reduces mPTP opening”. The “mitochondrial respiration (respiratory control ratio State 3/State 4)” value in the data set on kidney mitochondria (kidney mitochondria with glutamate and malate) is on record as “protects mitochondrial respiration”. Also, the “kidney ATP” value with kidney mitochondria (luciferase-based luminescent assay) is recorded as “preserves normal ATP production”. Also, the “tolerability by cultured HAECs” value in [3] is “well tolerated”. For the same compound, the “concentration well tolerated by cultured HAECs” value in data set [3] (preliminary in vitro experiments) is given as “up to 200 nM”. For the same compound, the “isoLG-Lysyl-Lactam protein adducts in kidney mitochondria” value in data set [4] is recorded as “abolished isoLG-Lysyl-Lactam adducts formation”. Further, the “Ang II-induced hypertension (blood pressure)” value in data set [5] is recorded as “significantly attenuates”; in data set [5] (listed as Mito2HOBA), “significantly attenuated”. The water solubility result in data set [6] is reported as “water soluble”. Also, in data set [7], the “mitochondrial superoxide production / mitochondrial oxidative stress” value is “inhibited; also recorded: diminished mitochondrial oxidative stress; also recorded: inhibition of mitochondrial oxidative stress”. Moreover, the figures for the cardiolipin oxidation result in [8] and in data set [8] (listed as Mito2HOBA) were “prevented cardiolipin oxidation” and “more effective in prevention of cardiolipin oxidation than 2HOBA”, respectively. In the data set on CypD acetylation, the “balance between GCN5L1 and Sirt3 in aorta mitochondria” value was “corrects the imbalance between GCN5L1 and Sirt3”. Also, the “mitochondrial Ac-K (acetylation of mitochondrial proteins)” value with CypD acetylation is reported as “reduces mitochondrial Ac-K”. For the same compound, the CypD acetylation result was “reduced CypD acetylation” in the data set on CypD acetylation and “prevents CypD hyperacetylation” in the data set on CypD acetylation (listed as Mito2HOBA).

Turning to `CC1(C)CC(NC(=O)C[P+](c2ccccc2)(c2ccccc2)c2ccccc2)CC(C)(C)N1[O]` [mitoTEMPO], the “concentration within the mitochondrial matrix” value in the data set with mitochondrial matrix is given as “more than a five hundred-fold”.
